Measured values taken from PubChem BioAssay (NCI).
Several values for one entry are separate records, joined by “and”; a condition that tells them apart may be missing. Identical values can stand only once.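 Following 48 hours of exposure in 96-well plates, responses at five concentrations were used to interpolate endpoints linearly. GI50 is the concentration that inhibits growth by half. TGI denotes the concentration required for complete inhibition of growth.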 Where a SMILES comes first, the peptide text is derived from it. [ ]: non-standard residue; d: D form. The star is where a group is joined. Decanoyl = CCCCCCCCCC(=O)*; Leu(ol) = CC(C)C[C@H](N)CO; Iva = CC[C@](C)(N)C(=O)O; Aib = CC(C)(N)C(=O)O

test system: MDA-MB-468 breast; assay: NCI-60 cell line screen, 48 h

| Compound | GI50 | TGI |
| --- | --- | --- |
| COc1cc(C(=O)c2c(-c3ccccc3)oc3c(OC)cccc23)cc(OC)c1O | 0.936 µM | 7.22 µM |
| CC1(C)CCC2(CC1)N[C@@H](C(=O)N[C@@H]1CC[C@@H](C(N)=O)OC1)[C@H](c1ccnc(Cl)c1F)[C@]21C(=O)Nc2cc(Cl)ccc21 | 2.24 µM | 5.63 µM |
| COc1ccc2c(c1)oc1c(C)c3c(c(C)c12)C(=O)N(N)C3=O | > 100 µM | > 100 µM |
| CCNCCCn1c2c(c3ccc(F)cc3c1=O)C(=O)c1cc(OC)cnc1-2 | 0.139 µM | 0.312 µM |
| CCCCCCCCCC(=O)NC(C)(C)C(=O)N1CCC[C@H]1C(=O)N[C@@H](CC(C)C)C(=O)N[C@@](C)(CC)C(=O)N[C@@H](CCC(N)=O)C(=O)N[C@H](CCC(N)=O)C(=O)NC(C)(C)C(=O)NC(C)(C)C(=O)N[C@@H](CCC(N)=O)C(=O)N[C@H](CC(C)C)C(=O)N[C@H](CO)CC(C)C (Decanoyl-[Aib]PL[Iva]Q[dQ][Aib][Aib]Q[dL][Leu(ol)]) | 1.79 µM | 3.34 µM |
| COc1ncc(-c2ccc3nccc(C#CCCCCC(=O)O)c3c2)cc1NS(=O)(=O)c1ccc(F)cc1F | 0.132 µM | 1.9 µM |
| C[CH2][Sn]([CH2]C)([O]C(=O)c1cccc(OC)c1)[O][Sn]([CH2]C)([CH2]C)[O]C(=O)c1cccc(OC)c1 | 5.53 µM | 20.8 µM |
| COc1cccc2c1C(=O)c1c(O)c3c(c(O)c1C2=O)CC(O)(/C(C)=N/NC(=O)CCCCC(=O)N/N=C(\C)C1(O)Cc2c(O)c4c(c(O)c2C(OC2CC(N)C(O)C(C)O2)C1)C(=O)c1c(OC)cccc1C4=O)CC3OC1CC(N)C(O)C(C)O1 (centres undefined) | 0.0935 µM | 0.251 µM |
| O=C(NC(=S)Nc1ccccn1)c1ccccc1 | 12.5 µM | > 100 µM |
| O=C(/C=C/c1cc2ccccc2[nH]c1=O)c1ccc(Cl)cc1 | 17.4 µM | 35.2 µM |
| N#Cc1c(-c2ccc(Cl)cc2)csc1NC(=O)Nc1ccc(Cl)c(C(F)(F)F)c1 | 0.186 µM | 1.51 µM |
| COC(=O)[C@@H](C)C[C@H](Cc1ccccc1)NC(=O)c1cccc([C@@H](C[C@H](C(C)C)N(C)C(=O)[C@@H](NC(=O)[C@H]2CCCCN2C)C2CC2)OC(C)=O)n1 | 0.00333 µM | 33.3 µM and > 100 µM |
| CCCSc1ccc2nc(NC(=O)OC)[nH]c2c1 | 0.21 µM | 0.702 µM |
| C=CCn1c(SCC(=O)Nc2ccc(C(=O)/C=C/c3cc(OC)c(OC)c(OC)c3)cc2)nnc1-c1ccc(Cl)cc1 | 3.47 µM | 26.6 µM |
| O=c1c2c([nH]c3ccccc13)CCCC2 | 16.7 µM | > 100 µM |
| C=C1c2c(C)nn(-c3ccc(OC)cc3)c2N(C)C23C[C@@H]1C1(C)c4c(C)nn(-c5ccc(OC)cc5)c4N(C)C(C)(C[C@H]12)C3 (some centres undefined) | 2.5 µM | 12.8 µM |
| Cn1c(=O)n(CCCO)c(=O)c2c1nc(Oc1cccc(OC(F)(F)F)c1)n2Cc1ccc(Cl)cc1 | 12.9 µM | 29.9 µM |
| O=C(Nc1ccc(-n2cc(-c3ccncc3)c(-c3ccc(O)c(Cl)c3)n2)cc1)c1cc(C(F)(F)F)cc(C(F)(F)F)c1 | 6.06 µM | > 25 µM |
| C#Cc1ccc(NC(=O)c2ccc(/C=C/C(=O)c3nccn3C)cc2)c(F)c1 | 1.24 µM | 4.42 µM |

| Compound | GI50 | TGI |
| --- | --- | --- |
| Brc1ccc(SCN(CSc2ccc(Br)cc2)Cc2ccccc2)cc1 | 6.45 µM | 30.6 µM |
| COC1=CC(=O)c2c(ccc3ncnc(N)c23)C1=O | 1.14 µM | 2.77 µM |
| NS(=O)(=O)c1ccc(N=Cc2c(O)[nH]c3ccc4ncsc4c23)cc1 | 0.488 µM and 0.472 µM | 1.14 µM and 1.08 µM |
| COc1cc(/C=C/C(=O)Nc2ccc3c(c2)/C(=C\c2cccn2C)C(=O)N3)cc(OC)c1OC | 3.39 µM | 25.2 µM |
| C=C1C(=O)O[C@H]2[C@H]1CC/C(CNC(=O)c1cccc3ccccc13)=C\CC[C@@]1(C)O[C@@H]21 | 1.38 µM | 4.24 µM |
| Oc1ccc(CSc2nnc(-c3ccc(Cl)cc3)n2-c2ccccc2)c2cccnc12 | 1.19 µM | > 100 µM |
| N#C/C(=C\c1cn(Cc2ccccc2)c2ccccc12)C(=O)Nc1ncc(Cc2ccccc2Cl)s1 | 1.84 µM | 4.68 µM |
| COc1ccc(-c2c(-c3cc(OC)c(OC)c(OC)c3)nc3sc(C4CC4)nn23)cc1OC | 1.9 µM | 31.4 µM |
| Nc1n[n+](=O)c2ccccc2n1O | 19.6 µM | 67 µM |
| C1=C/COCc2cc(ccc2OCCN2CCCC2)Nc2nccc(n2)-c2cccc(c2)COC/1 | 0.396 µM and 0.562 µM | 1.48 µM and 2.01 µM |
| O=[N+]([O-])c1ccc(C(Br)c2ccc([N+](=O)[O-])cc2)cc1 | 11.5 µM | 25.9 µM |
| C=C1CC2(OC1=O)C(=O)N(C)c1ccc(I)cc12 (centres undefined) | 0.537 µM | 2.76 µM |
| O=C(Nc1cccc(-n2ccc3c(NC(=O)c4ccccc4)nccc32)c1)Nc1ccc(Cl)c(C(F)(F)F)c1 | 0.257 µM | 3.36 µM |
| COc1cc(/C=C/C(=O)c2ccc(Nc3nc(Nc4ccc(F)cc4)nc(Nc4ccc(Cl)cc4)n3)cc2)cc(OC)c1OC | 1.34 µM | 3.75 µM |
| CCOc1ccc(C(=O)Nc2ncc(Cc3ccc(F)cc3)s2)cc1 | 0.266 µM | > 100 µM |
| COc1ccc(-c2nnc(COc3ccc(Cl)cc3Cl)o2)cc1OC | 7.32 µM | 54.4 µM |
| Cc1c([C@H](C(Cl)Cl)[C@H](O)[C@H]2C[C@H](C)C(=O)O2)ccc2c1C(=O)[C@H]1[C@H]2C[C@@H](Br)[C@@]23O[C@@H](CO[C@H]2O)CC13C (some centres undefined) | 0.129 µM | 0.922 µM |
| CCOC(=O)c1ccc2c(c1)[n+](=O)c(C(=O)C1CCCS1)c(C(F)(F)F)n2[O-] (centres undefined) | 0.25 µM | 0.967 µM |
